PMC6009976, “Pharmacophore-based design and discovery of (−)-meptazinol carbamates as dual modulators of cholinesterase and amyloidogenesis” (Journal of Enzyme Inhibition and Medicinal Chemistry, 2017)
Like-named read-outs stand apart in the source and are kept apart here. Marks after values point to notes of the source that are not given here.

Assays:
[1] = molecular target: T1, AChE (mice brain homogenate) (Mus musculus, UniProt P21836); assay: In vitro AChE inhibition assay (Ellman's method); assay type: biochemical; details: for Selectivity for AChE (IC50 for BChE divided by IC50 for AChE): mice serum BChE, (−)-meptazinol from values of ref 17
T1 construct: a solution of AChE (1:9 w/v homogenate in 0.1 M phosphate buffer (PB), pH 7.4); from tissue; host or cells: mouse brain homogenate
T1 sequence (P21836 32-614): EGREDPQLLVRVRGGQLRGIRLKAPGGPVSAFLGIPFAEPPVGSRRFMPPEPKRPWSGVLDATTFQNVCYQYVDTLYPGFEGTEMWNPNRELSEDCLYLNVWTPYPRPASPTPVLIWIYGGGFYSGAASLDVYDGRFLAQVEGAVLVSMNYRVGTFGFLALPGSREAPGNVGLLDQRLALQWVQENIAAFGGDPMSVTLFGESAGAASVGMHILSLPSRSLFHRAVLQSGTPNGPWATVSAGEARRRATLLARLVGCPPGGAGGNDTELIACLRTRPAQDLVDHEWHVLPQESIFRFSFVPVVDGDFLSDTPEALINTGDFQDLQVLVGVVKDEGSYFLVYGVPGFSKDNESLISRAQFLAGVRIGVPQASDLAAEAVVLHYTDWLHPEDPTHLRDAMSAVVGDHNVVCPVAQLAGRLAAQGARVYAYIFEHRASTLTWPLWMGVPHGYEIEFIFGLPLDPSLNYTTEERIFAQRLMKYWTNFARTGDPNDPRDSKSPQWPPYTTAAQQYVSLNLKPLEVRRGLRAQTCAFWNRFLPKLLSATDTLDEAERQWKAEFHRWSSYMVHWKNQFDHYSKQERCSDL
Procedure: (§1) Inhibitory activities of the compounds toward AChE and BChE were evaluated by Ellman’s method, employing mice brain homogenate as source of AChE and mice serum as source of BChE. […] After incubation for 20 min at 37 °C, Ellman’s reagent (300 µL, 5,5′-dithiobis(2-nitrobenzoic acid) (DTNB), 0.5 mM in 0.1 M PB, pH 7.4) and acetylthiocholine iodide (ATCh) (300 µL of 0.5 mM water solution) were added successively, and percent inhibition was determined by absorbance changes at 412 nm detected by UV spectrophotometry compared with control. BChE inhibition assay was similarly carried out using butyrylthiocholine iodide (BTCh) (0.5 mM) as the substrate and BChE (1:19 v/v serum in 0.1 M PB, pH 7.4) as the enzyme source.

BChE (mice serum) = molecular target: T2, BChE (mice serum) (Mus musculus, UniProt Q03311); assay: In vitro BChE inhibition assay (Ellman's method); assay type: biochemical; details: read-out: IC50 ± SEM BChE
T2 construct: BChE (1:19 v/v serum in 0.1 M PB, pH 7.4) as the enzyme source; from tissue; host or cells: mouse serum
T2 sequence (Q03311 30-603): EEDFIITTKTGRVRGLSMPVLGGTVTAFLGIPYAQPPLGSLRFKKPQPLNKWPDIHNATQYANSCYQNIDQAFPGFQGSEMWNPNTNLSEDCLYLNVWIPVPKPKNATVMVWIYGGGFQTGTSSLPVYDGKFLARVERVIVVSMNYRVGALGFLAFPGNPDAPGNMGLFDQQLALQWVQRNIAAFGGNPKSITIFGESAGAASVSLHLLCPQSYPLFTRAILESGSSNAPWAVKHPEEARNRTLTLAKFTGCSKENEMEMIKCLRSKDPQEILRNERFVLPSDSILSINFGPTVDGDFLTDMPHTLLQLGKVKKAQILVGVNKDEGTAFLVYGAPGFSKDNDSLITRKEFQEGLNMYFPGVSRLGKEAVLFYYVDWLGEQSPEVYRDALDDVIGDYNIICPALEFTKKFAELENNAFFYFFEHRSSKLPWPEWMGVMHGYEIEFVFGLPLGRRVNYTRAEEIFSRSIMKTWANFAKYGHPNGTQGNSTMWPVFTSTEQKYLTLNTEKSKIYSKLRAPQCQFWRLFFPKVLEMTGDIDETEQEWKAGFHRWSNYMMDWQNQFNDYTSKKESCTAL
Procedure: as §1

rHuAChE = rHuAChE (Homo sapiens, UniProt P22303); assay: Determination of the enzyme kinetic parameters Km and Vmax; assay type: biochemical; details: for Type of AChE inhibition: Lineweaver–Burk plots, decreased Vmax, unvaried Km
rHuAChE, sequence (P22303 32-614): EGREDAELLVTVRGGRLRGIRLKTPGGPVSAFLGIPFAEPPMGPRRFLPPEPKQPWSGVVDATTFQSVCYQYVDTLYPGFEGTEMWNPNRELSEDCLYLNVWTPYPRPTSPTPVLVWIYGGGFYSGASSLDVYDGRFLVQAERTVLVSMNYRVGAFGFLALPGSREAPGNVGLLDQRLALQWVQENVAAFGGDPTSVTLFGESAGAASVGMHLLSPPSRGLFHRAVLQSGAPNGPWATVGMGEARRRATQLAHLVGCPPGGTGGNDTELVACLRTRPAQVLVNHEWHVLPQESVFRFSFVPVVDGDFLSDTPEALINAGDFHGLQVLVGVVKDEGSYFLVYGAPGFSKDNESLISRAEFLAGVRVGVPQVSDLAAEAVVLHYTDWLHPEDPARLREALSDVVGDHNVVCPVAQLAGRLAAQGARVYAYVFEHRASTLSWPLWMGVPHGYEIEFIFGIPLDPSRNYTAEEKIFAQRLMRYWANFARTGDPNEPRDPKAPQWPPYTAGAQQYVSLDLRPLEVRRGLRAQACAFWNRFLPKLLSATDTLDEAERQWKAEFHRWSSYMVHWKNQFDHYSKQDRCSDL
Procedure: 10 µL inhibitors of different concentrations and 50 µL rHuAChE enzyme solution of 0.5 U/mL were mixed and incubated for 20 min, then 75 µL of DTNB solution and 100 µL of ATCh solution (concentration ranging from 0.057 mM to 0.2 mM) were added to the mixture. Enzyme activity was determined right after ATCh was added by modified Ellman’s spectrophotometrical method. The Km and Vmax values for AChE inhibition were calculated by regression analysis of Lineweaver–Burk plots (1/velocity versus 1/[substrate]).

[2] = molecular target: T3, rHuAChE immobilized on EDA CIM disk (Homo sapiens, UniProt P22303); assay: Carbamoylation and decarbamoylation rate constants on AChE immobilized disk; assay type: biochemical; details: for Kd: inhibitor 50 and 100 nM; for Carbamoylation half-time: inhibitor 50 nM
T3 sequence (P22303 32-614): as above
Procedure: The EDA CIM disk was first connected to a syringe pump and equilibrated with 10 column volumes (CV) of triple-distilled water and 10 CVs of 0.5 M Na-PB (pH 8.0). The flow rate was set at 0.5 mL/min. Then, the disk was activated by a 1% glutaraldehyde solution in PB (0.1 M, pH 7.4) (in the dark, 12 h, 4 °C). The activated disk was washed with 10 CVs of PB. 2 mL of rHuAChE in PB (10 U/mL) was then added into the column and left to react overnight (4 °C). The Schiff bases were reduced by 5 mL of 0.1 M sodium triacetoxyborohydride (STAB) in PB (2 h at room temperature) and 5 mL of 0.2 M monoethanolamine in PB (3 h at room temperature)[39]. The column was connected to the liquid chromatography system and equilibrated with a mobile phase consisting of 0.5 M NaCl and 10^−4 M DTNB in PB (buffer A) for 10 min. Reference enzyme activity was assessed by injecting 20 µL of saturating substrate (ATCh, 50 mM). The peak area was calculated and noted as A0. Then, the mobile phase was switched to the one containing selected concentrations of inhibitor (carbamoylation phase). Aliquots of 20 µL of saturating substrate were injected every 10–20 min and the time-dependent decreasing of peak area (Ai) was monitored down to a plateau. Once a constant plateau was reached, mobile phase was switched to buffer A again (decarbamoylation phase). Aliquots of substrate were kept injecting into the system to monitor the recovery of AChE activity over time. […] The experiment was carried out for two different concentrations of 42 and 43 (50 and 100 nM). The process of AChE carbamoylation and decarbamoylation is generally described as Scheme 1[40–42].
Calculation of ki and k3 was performed by applying Perola’s mathematical equation[43]. The affinity of the inhibitors toward the enzyme (KD) was calculated following Equation (1). (1) […]

[3] = system: APP in SH-SY5Y-APP695 cells; assay: Quantification of APP by high content screening; assay type: cell-based, human; details: 16 h; for Reduction of intracellular APP level: 50 µM
Procedure: (§2) Human neuroblastoma SH-SY5Y cells transfected with wild-type APP695 gene (SH-SY5Y-APP695)[44] of 5 × 10^4/well (SH-SY5Y-APP695 kindly provided by Prof. Shengdi Chen, Ruijin Hospital, Shanghai Jiao Tong University School of Medicine) were plated in 200 µL culture medium (DMEM/F12, 10% Fetal Bovine Serum, 300 µg/mL G418, 100 U/mL penicillin + 100 µg/mL streptomycin) and incubated for 48 h at 37 °C in 5% CO2. Compounds 42 and 43 dissolved in culture medium were applied to the cells and incubated at 37 °C in 5% CO2 for 16 h. The cells were fixed and permeabilized. Mouse anti-APP monoclonal antibody N-terminus (MAB348, CHEMICON) and Goat anti-Mouse IgG conjugated to Alexa Fluor 555 were used as primary antibody and secondary antibody to detect APP while Hoechst Dye was used to stain nucleus simultaneously. KineticScan HCS System was employed to automatically find, focus, image, and analyze the cells on double-fluorescence channel guided by Target Activation Bioapplication. Fluorescence Unit of APP versus that of nucleus was used to evaluate the expression of APP, in order to balance the background.

[4] = system: Aβ40/Aβ42 in SH-SY5Y-APP695 cells; assay: Quantification of Aβ40/Aβ42 by ELISA in cell culture medium; assay type: cell-based, human; details: for Reduction of Aβ42 level / Level of Aβ40: 50 µM; for Level of Aβ40: data not shown
Procedure: as §2
The cell culture medium was collected and added with phenylmethylsulfonyl fluoride (PMSF) to the final concentration of 0.1%. The concentration of Aβ40/Aβ42 in the medium was measured by Human/Rat βAmyloid (40/42) ELISA Kit Wako and calculated according to the standard line.

in vivo = details: both, Kunming, mouse, in vivo
Procedure: (§3) Acute toxicity was evaluated in mice of both sexes (20–25 g Kunming mice from experimental animal center of Shanghai Jiao Tong University School of Medicine). All animals were housed in plastic cages with food and water ad libitum and maintained on a 12/12 h light/dark cycle at 22 ± 1 °C. […] Compounds 42 and 43 were dissolved in a 1:10 propylene glycol-normal saline mixture at 0.1 mol/L and then diluted to the final stepwise concentrations with normal saline. Each concentration of the compound was orally or intraperitoneally administered to a group of 10 animals. After two weeks of observation, the lethal rate for each group was measured. A 95% confidence interval for 42 or 43 after oral or intraperitoneal administration was calculated by Bliss method.

Kunming mice = assay: in vivo; details: mice; as doses escalate
Procedure: as §3

[5] = molecular target: T1, AChE (mice brain homogenate); details: cited from earlier work
mice brain AChE = details: training set, read-out: Experimental IC50; cited from earlier work
[6] = cited from earlier work
[7] = system: AChE from human erythrocytes; details: human erythrocyte AChE; read-out: IC50 ± SEM AChE; cited from earlier work
human serum BChE = details: read-out: IC50 ± SEM BChE; cited from earlier work
[8] = system: APP in SH-SY5Y-APP695 cells; details: 50 µM; cited from earlier work
[9] = system: Aβ40/Aβ42 in SH-SY5Y-APP695 cells; details: 50 µM; cited from earlier work
[10] = molecular target: T3, rHuAChE immobilized on EDA CIM disk; details: cited from earlier work
[11] = dissociation (decarbamoylation) constant, Mean ± SD, n = 6
[12] = inhibit (carbamoylation) constant, Mean ± SD, n = 6
[13] = reference compound to verify the disk

For `CC[C@@]1(c2cccc(OC(=O)N(C)C)c2)CCCCN(C)C1` [Compound 42, (S)-3-(3-ethyl-1-methylazepan-3-yl)phenyl dimethylcarbamate], the IC50 [1] was 6.93 ± 2.45 nM, the “AChE inhibitory potency relative to rivastigmine (times more potent)” value ([1]; mice brain AChE) was “about 790” and the “Fold increase in inhibition of mice brain AChE compared with (−)-meptazinol” value ([1]; mice brain AChE) was 5900. For the same compound, the “Selectivity for AChE (IC50 for BChE divided by IC50 for AChE)” value ([1]; mice brain AChE) was 0.46, the IC50 (BChE (mice serum)) was 3.17 ± 1.34 nM and the “Type of AChE inhibition” value (rHuAChE) was “uncompetitive inhibition”. For the same compound, the “Decrease of Vmax” value (rHuAChE; inhibitor 100 nM) was 18%, the Vmax-app (rHuAChE; inhibitor 100 nM) was 28.73 µM/min and the “Decrease of Vmax” value (rHuAChE; inhibitor 250 nM) was 29%. The Vmax-app (rHuAChE; inhibitor 250 nM) was 24.70 µM/min, the Kd ([2]; Mean ± SD, n = 6) was 30.2 nM and the k3 [2, 11] was “(1.35 ± 0.31) × 10^−2 min^−1”. For the same compound, the ki [2, 12] was “(4.47 ± 1.21) × 10^5 M^−1min^−1”, the Carbamoylation half-time [2] was 23.5 min and the “Reduction of intracellular APP level” value [3] was 23.5%. For the same compound, the “Reduction of Aβ42 level” value ([4]; 16 h) was 34.0%, the “Level of Aβ40” value [4] was “unchanged” and the LD50 (in vivo; ip) was 1.4 mg/kg. For the same compound, the LD50 (in vivo; po) was 12 mg/kg and the “Peripheral cholinergic side effects observed” value (Kunming mice) was “salivation, twitch, and incontinence”.

In the case of `CC[C@@]1(c2cccc(O)c2)CCCCN(C)C1` [(−)-Meptazinol], the “Selectivity for AChE (IC50 for BChE divided by IC50 for AChE)” value ([1]; mice brain AChE) is given as 0.37 and the IC50 [5] is given as 41000 nM.

For `CCN(C)C(=O)Oc1cccc([C@H](C)N(C)C)c1` [Compound 14, Rivastigmine], the IC50 (mice brain AChE) is listed as […] and the LD50 ([6]; p.o.) is listed as 3-6 (p.o.)^f mg/kg.

In the case of `CN1CC[C@@]2(C)c3cc(OC(=O)Nc4ccccc4)ccc3N(C)[C@@H]12` [Compound 5, Phenserine], the IC50 [7] is listed as 24 ± 6 nM, the IC50 (human serum BChE) is listed as 1300 ± 85 nM and the “Decrease of APP level” value [8] is listed as 40%. For the same compound, the “Decrease of total Aβ” value [9] was 31% and the LD50 ([6]; i.p.) was 25 (i.p.)^i mg/kg.

For `CC[C@@]1(c2cccc(OC(=O)Nc3ccccc3)c2)CCCCN(C)C1` [Compound 43, (S)-3-(3-ethyl-1-methylazepan-3-yl)phenyl phenylcarbamate], the IC50 [1] was 31.6 ± 3.5 nM, the “Times less potent than phenserine in AChE inhibition” value ([1]; against phenserine value of ref 22) was 1.3 and the “Fold increase in inhibition of mice brain AChE compared with (−)-meptazinol” value ([1]; mice brain AChE) was 1300. For the same compound, the “Selectivity for AChE (IC50 for BChE divided by IC50 for AChE)” value ([1]; mice brain AChE) was 2.1, the IC50 (BChE (mice serum)) was 67.1 ± 23.7 nM and the “Type of AChE inhibition” value (rHuAChE) was “uncompetitive inhibition”. The “Decrease of Vmax” value (rHuAChE; inhibitor 25 nM) was 10%, the Vmax-app (rHuAChE; inhibitor 25 nM) was 17.84 µM/min and the “Decrease of Vmax” value (rHuAChE; inhibitor 50 nM) was 25%. The Vmax-app (rHuAChE; inhibitor 50 nM) was 14.94 µM/min, the Kd ([2]; Mean ± SD, n = 6) was 108 nM and the k3 [2, 11] was “(2.18 ± 0.12) × 10^−2 min^−1”. The ki [2, 12] was “(2.12 ± 0.46) × 10^5 M^−1min^−1”, the Carbamoylation half-time [2] was 20.3 min and the “Decrease of APP level” value ([3]; 5 µM) was 20.0%. For the same compound, the “Reduction of intracellular APP level” value [3] was 26.9%, the “Decrease of Aβ42 level” value ([4]; 5 µM, 16 h) was 30.5% and the “Reduction of Aβ42 level” value ([4]; 16 h) was 51.9%. The “Level of Aβ40” value [4] was “unchanged”, the LD50 (in vivo; ip) was 45 mg/kg and the LD50 (in vivo; po) was 73 mg/kg. The “Peripheral cholinergic side effects observed” value (Kunming mice) was “salivation, twitch, and incontinence”.

In the case of `CNC(=O)Oc1ccc2c(c1)[C@]1(C)CCN(C)[C@@H]1N2C` [Compound 1, (3aS)-(−)-physostigmine], the k3 [2, 13] is listed as “(1.94 ± 0.36) × 10^−2 min^−1”, the ki [2, 13] is listed as “(4.78 ± 1.13) × 10^5 M^−1 min^−1” and the Carbamoylation half-time [10] is listed as 3.9 min. For the same compound, the LD50 ([6]; p.o.) was 4.5 (p.o.)^h mg/kg.
